Read-outs that look alike come from different tables or passages of the source.
Key:
[1] = target: T1, hSULT1A1 (Homo sapiens, UniProt P50225); details: cited from earlier work; for K M of sulfoconjugation: ref Honma et al. [2001]
T1 construct: made in house; host or cells: Salmonella typhimurium TA1538 (cytosolic fraction, not purified)

[2] = set-up: method as in Monien et al. [2009]; details: ref Monien et al. [2009], cited from earlier work
[3] = Stability of SMF in solution; assay type: physicochemical; details: solutions containing 75 % 2-propanol at 4 °C, within four weeks
Protocol: The analytical technique used in this study was adapted from the SMF quantification in plasma samples of HMF-treated mice (Monien et al. [2009]). This is beset with two potential sources of inaccuracy. […] Here, we chose a reaction time of 30 min. […] SMF was analyzed by UPLC-MS/MS in the MRM mode using the specific fragmentation reactions of the sulfate ion radical (m/z = 204.9 → 96.0) and the protonated sulfonate ion (m/z = 204.9 → 81.0) (Monien et al. [2009]). Representative chromatograms are shown in Fig. S2 of the Supplementary Material. The SMF levels resulting from HMF sulfoconjugation were quantified using SMF solutions at various concentrations as external calibration line prepared in water/2-propanol (1:3), which represents the solvent composition in the incubation mixture following instant stopping and precipitating of proteins. The second source of imprecision of mass spectrometric SMF quantification with an external calibration is the possible ion suppression by residues from bacterial cytosol or buffer salts in the samples. This was tested in a separate experiment measuring the peak areas of six series of solutions with five different SMF concentrations, either prepared with water or with the contents of the incubation mixture including 1 mg/ml protein from a cytosolic preparation of native S. typhimurium TA1538.

[4] = set-up: method as in Glatt et al. [2012]; details: in water at 37 °C; ref Glatt et al. [2012]; cited from earlier work

T1 sequence (P50225 whole entry): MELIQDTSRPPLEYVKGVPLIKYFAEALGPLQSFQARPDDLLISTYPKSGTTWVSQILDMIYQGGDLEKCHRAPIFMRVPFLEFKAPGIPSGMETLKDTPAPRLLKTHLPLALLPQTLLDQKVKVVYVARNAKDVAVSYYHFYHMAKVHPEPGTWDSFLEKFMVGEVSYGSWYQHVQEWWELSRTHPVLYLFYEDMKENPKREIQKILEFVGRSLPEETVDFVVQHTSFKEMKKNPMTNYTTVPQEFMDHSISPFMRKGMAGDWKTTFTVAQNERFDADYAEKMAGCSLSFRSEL

SMILES: NCCc1ccc(O)c(O)c1 [dopamine]
- K M of sulfoconjugation [1]: 130 µM

SMILES: O=Cc1ccc(COS(=O)(=O)O)o1 [SMF, 5-sulfoxymethylfurfural]
- half-life ([2]; in plasma at 37 °C): 1.8 h
- half-life ([2]; in urine at 37 °C): 2.1 h
- half-life ([2]; in water at 37 °C): 1.9 h
- stability [3]: without any detectable degradation

SMILES: O=S(=O)(O)OCc1ccco1 [2-sulfoxymethylfuran]
- t 1/2 [4]: 20 s

SMILES: CC(=O)Nc1ccc(O)cc1 [paracetamol]
- K M of turnover ([1]; ref Adjei et al. [2008]): 2400 µM

SMILES: O=[N+]([O-])c1ccc(O)cc1 [p-nitrophenol]
- K M of sulfoconjugation [1]: 3.0 µM

SMILES: COc1cc2c(CCNC(C)=O)c[nH]c2cc1O [6-hydroxymelatonin]
- K M of sulfoconjugation [1]: 18 µM

Reference: PMC4710668, “Bioactivation of food genotoxicants 5-hydroxymethylfurfural and furfuryl alcohol by sulfotransferases from human, mouse and rat: a comparative study” (Archives of Toxicology, 2014)
